From article PMC3692431, “Anticonvulsant Activity of B2, an Adenosine Analog, on Chemical Convulsant-Induced Seizures” (PLoS ONE, 2013)
Read-outs that look alike come from different tables or passages of the source.

How the values were obtained:
[1] = test system: picrotoxin-induced seizures; assay type: in vivo, mice; settings: picrotoxin 3.5 mg/kg; for mortality rate: control 50%; for latency to seizure onset prolonged by / number of seizures reduced by: vs control
Description: (§1) KA was dissolved in saline and the pH was adjusted to neutrality. The final concentration of KA was 0.7 µg/µl, and the convulsant dose was 1 µl (i.c.v.). […] The selective adenosine receptor antagonist DPCPX or SCH58261 was administered (i.p.) 5 min before administration of B2 or vehicle.
The latency of seizure onset, number of seizures, and mortality rate was recorded for the picrotoxin-injected mice. For the PTZ-injected mice, we recorded the latency of seizure onset, number of seizures, and presence of clonic seizures.

[2] = molecular target: T1, recombinant human adenosine A2A receptor (Homo sapiens, UniProt P29274); experiment: cAMP accumulation assay in CHO cells expressing A2A receptor; assay type: cell-based; settings: CHO cells expressing human A2A receptors; read-out: EC50, elevation of cAMP levels
T1 construct: expressed in transfected cells; host or cells: CHO cells (provided by Professor R. B. Su)
T1 sequence (P29274 whole entry): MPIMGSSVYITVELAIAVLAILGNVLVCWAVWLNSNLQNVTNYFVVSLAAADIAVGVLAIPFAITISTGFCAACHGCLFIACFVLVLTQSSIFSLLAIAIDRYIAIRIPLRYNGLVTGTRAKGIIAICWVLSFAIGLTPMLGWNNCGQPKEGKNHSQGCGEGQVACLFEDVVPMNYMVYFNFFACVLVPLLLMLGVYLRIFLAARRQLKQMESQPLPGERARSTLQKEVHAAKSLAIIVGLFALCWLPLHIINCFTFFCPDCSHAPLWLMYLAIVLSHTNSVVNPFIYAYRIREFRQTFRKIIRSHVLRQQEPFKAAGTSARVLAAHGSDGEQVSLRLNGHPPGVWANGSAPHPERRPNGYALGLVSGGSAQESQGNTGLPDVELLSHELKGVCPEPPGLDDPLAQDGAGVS
Description: Chinese hamster ovary (CHO) cells expressing recombinant human A1/A2A receptors (provided by Professor R. B. Su of the Institute of Pharmacology and Toxicology, Academy of Military Medical Sciences, Beijing, China) were cultured in Dulbecco’s Modified Eagles Medium with the F12 nutrient mixture (DMEM/F12) containing no nucleosides, and with 10% fetal calf serum, penicillin (100 U/ml), streptomycin (100 µg/ml), L-glutamine (2 mM), and Geneticin at 37°C in a 5% CO2/95% atmosphere. The cells used to determine cAMP levels had viability >95%, as assessed by trypan blue exclusion.
Intracellular cyclic adenosine monophosphate (cAMP) levels were measured using a competitive protein binding method. To measure A1/A2A receptor-mediated accumulation of cAMP, cells were grown as confluent monolayers in 24-well cluster dishes. The cells were washed twice with 2 mL of medium containing 20 mM HEPES that had been prewarmed to 37°C, pH 7.4. The cells were then preincubated for 15 min in 0.4 mL fresh medium containing 30 µM of the cAMP phosphodiesterase inhibitor rolipram. B2 was added in 0.1 mL of medium and incubations continued for 15 min. The reaction was then terminated by removing the supernatant, and cells were lysed with the addition of 500 µl of 0.1 M ice-cold HCl. The cell lysate was centrifuged (4,000×g) at 4°C for 10 min. […] Bound radioactivity was measured by liquid scintillation spectrometry.

A1 adenosine receptor = molecular target: T2, A1 adenosine receptor (Rattus norvegicus, UniProt P25099); experiment: Radioligand binding, [3H]DPCPX displacement in rat cortical membranes; settings: 0.2 nM [3H]DPCPX
T2 construct: from tissue; host or cells: cerebral cortex of male Wistar rats
T2 sequence (P25099 1-326): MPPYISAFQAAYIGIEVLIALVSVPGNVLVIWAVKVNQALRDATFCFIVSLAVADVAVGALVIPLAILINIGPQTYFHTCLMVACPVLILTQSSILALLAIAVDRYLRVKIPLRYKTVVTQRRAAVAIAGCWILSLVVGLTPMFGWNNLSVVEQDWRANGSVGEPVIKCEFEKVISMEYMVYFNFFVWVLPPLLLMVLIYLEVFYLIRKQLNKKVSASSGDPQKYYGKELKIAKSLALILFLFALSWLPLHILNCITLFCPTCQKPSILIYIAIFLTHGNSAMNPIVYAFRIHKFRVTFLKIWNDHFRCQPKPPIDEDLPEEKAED

A2A adenosine receptor = molecular target: T3, A2A adenosine receptor (Rattus norvegicus, UniProt P30543); experiment: Radioligand binding, [3H]MSX-2 displacement in rat striatal membranes; settings: 0.75 nM [3H]MSX-2
T3 construct: from tissue; host or cells: striatum of male Wistar rats
T3 sequence (P30543 whole entry): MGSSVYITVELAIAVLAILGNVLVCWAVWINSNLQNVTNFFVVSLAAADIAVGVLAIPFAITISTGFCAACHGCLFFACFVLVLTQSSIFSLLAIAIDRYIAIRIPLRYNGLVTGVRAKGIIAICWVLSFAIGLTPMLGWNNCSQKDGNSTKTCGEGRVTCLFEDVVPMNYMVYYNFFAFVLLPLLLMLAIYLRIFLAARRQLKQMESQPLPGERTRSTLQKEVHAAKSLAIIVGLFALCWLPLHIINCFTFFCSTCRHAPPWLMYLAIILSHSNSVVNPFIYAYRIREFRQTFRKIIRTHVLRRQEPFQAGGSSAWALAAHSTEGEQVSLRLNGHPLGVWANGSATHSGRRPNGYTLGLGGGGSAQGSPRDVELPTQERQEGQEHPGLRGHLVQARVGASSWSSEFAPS
Description: Male Wistar rats were sacrificed. The cerebral cortex and striatum were then removed and homogenized in 10 volumes of ice-cold 50 mM Tris–HCl buffer (pH 7.4). The homogenates were centrifuged (48,000 ×g) at 4°C for 10 min, the supernatant decanted, and the pellet resuspended in the same volume of buffer before being centrifuged again. The final pellets were resuspended in 50 mM Tris–HCl buffer containing adenosine deaminase (1.2 U per mg of protein) to remove endogenous adenosine.
Binding affinity at adenosine A2A receptors was tested in rat striatal membranes using 0.75 nM [^3H]MSX-2 (104.8 Ci/mmol). The binding assay was carried out in Tris–HCl buffer (50 mM, pH 7.4) as previously described, [12]. Briefly, assays were performed by first incubating the mixtures on a shaking water-bath at 25°C for 30 min. Termination of the incubation was performed by rapid filtration through GF/B glass fiber filters. The radioactivity on the filter was measured using a scintillation counter. […] Inhibition curves were determined using eight different concentrations ranging from 10^−5 to 10^−8 M. The inhibition constants (Ki) were calculated using an equation from Cheng and Prusoff.

PTZ-induced seizures = PTZ-induced seizures with adenosine receptor antagonist pretreatment; assay type: in vivo, mice; settings: B2 5 mg/kg; PTZ 85 mg/kg; P<0.05
Description: as §1
Twenty min later, mice were admdinistered with PTZ (85 mg/kg).

[3] = test system: rat adenosine A2A receptors; design: method as in PMID 22242450; settings: cited from earlier work
KA-induced seizures = KA-induced seizures in mice; assay type: in vivo; settings: KA 0.7 µg i.c.v.
Description: as §1
The left lateral ventricle (0.6 mm posterior, 1.9 mm lateral, and 2.1 mm ventral to bregma) was cannulated as described. After a 7-day recovery period, mice were injected with either B2 (1.25, 5, 20 mg/kg) or vehicle. Twenty minutes later, an intracerebroventricular injection of KA (0.7 µg/µl, 1 µl) was administered without anesthesia. The animals were then observed for a minimum of 60 min. Seizure severity was determined according to the scoring system described by Racine. At the end of the experiment, cannulae placement was verified.

4-AP-induced seizures = 4-AP-induced seizures in mice; assay type: in vivo; settings: 4-AP 13 mg/kg; for latency of seizure onset prolonged by: vs control
Description: as §1
Mice were injected with B2 (1.25, 5, 20 mg/kg), carbamazepine (80 mg/kg) or vehicle 20 min before administration of strychnine (1.5 mg/kg) or 4-AP (13 mg/kg). […] The time of latency to seizure onset and mortality rate were recorded.

COc1cc(CNc2ncnc3c2ncn3[C@@H]2O[C@H](CO)[C@@H](O)[C@H]2O)ccc1O [B2, N^6-(3-methoxyl-4-hydroxybenzyl) adenine riboside]
mortality rate ([1]; B2 1.25 mg/kg i.p.): 25% | latency to seizure onset prolonged by ([1]; B2 1.25 mg/kg i.p.): 64% | number of seizures reduced by ([1]; B2 1.25 mg/kg i.p.): 18% | mortality rate ([1]; B2 5 mg/kg i.p.): 13% | latency to seizure onset prolonged by ([1]; B2 5 mg/kg i.p.): 242% | number of seizures reduced by ([1]; B2 5 mg/kg i.p.): 64% | mortality rate ([1]; B2 20 mg/kg i.p.): 25% | latency to seizure onset prolonged by ([1]; B2 20 mg/kg i.p.): 183% | number of seizures reduced by ([1]; B2 20 mg/kg i.p.): 53% | EC50 [2]: 320 nM | Ki (A1 adenosine receptor): 420 nM | Ki (A2A adenosine receptor): 370 nM | effect on latency to seizure onset (PTZ-induced seizures): significantly prolonged | affinity for rat adenosine A2A receptors [3]: moderate affinity | average seizure duration (KA-induced seizures; B2 1.25 mg/kg i.p.): 5.3 ± 0.8 min | average seizure duration (KA-induced seizures; B2 5 mg/kg i.p.): 3.7 ± 0.7 min | average seizure duration (KA-induced seizures; B2 20 mg/kg i.p.): 3.3 ± 1.0 min | latency of seizure onset prolonged by (4-AP-induced seizures; B2 1.25 mg/kg i.p.): 25% | latency of seizure onset prolonged by (4-AP-induced seizures; B2 5 mg/kg i.p.): 135% | latency of seizure onset prolonged by (4-AP-induced seizures; B2 20 mg/kg i.p.): 96% | effect on mortality rate (4-AP-induced seizures; B2 1.25, 5, 20 mg/kg i.p., control 100%): did not have a significant effect
